Here are results for one molecule from BindingDB's records for doi:10.1021/acs.jmedchem.7b00484 (University of Strathclyde, 2017).

As a reminder, the Ki is a measure of affinity in units of concentration, obtained from inhibition or displacement.

The experiment addresses T1, Inhibitor of nuclear factor kappa-B kinase subunit beta (Homo sapiens, UniProt O14920).
T1 sequence (O14920 whole entry): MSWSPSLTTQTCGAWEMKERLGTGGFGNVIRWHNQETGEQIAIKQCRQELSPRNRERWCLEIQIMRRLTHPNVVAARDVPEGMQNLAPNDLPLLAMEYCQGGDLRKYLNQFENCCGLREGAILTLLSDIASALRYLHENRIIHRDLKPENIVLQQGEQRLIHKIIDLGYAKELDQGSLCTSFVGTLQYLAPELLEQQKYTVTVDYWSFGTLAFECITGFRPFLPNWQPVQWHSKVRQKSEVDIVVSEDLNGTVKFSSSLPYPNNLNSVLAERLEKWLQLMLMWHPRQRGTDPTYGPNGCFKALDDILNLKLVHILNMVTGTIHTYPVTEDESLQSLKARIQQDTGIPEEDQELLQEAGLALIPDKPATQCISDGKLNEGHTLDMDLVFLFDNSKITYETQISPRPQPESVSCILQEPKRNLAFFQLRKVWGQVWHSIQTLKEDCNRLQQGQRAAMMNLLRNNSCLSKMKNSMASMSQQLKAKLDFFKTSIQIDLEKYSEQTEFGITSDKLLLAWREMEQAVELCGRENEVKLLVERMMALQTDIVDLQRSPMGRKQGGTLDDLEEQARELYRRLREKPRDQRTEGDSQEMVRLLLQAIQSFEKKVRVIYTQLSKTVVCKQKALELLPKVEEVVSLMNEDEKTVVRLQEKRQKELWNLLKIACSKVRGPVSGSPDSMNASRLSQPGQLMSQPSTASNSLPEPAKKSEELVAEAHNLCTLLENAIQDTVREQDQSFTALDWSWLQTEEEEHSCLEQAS
Briefly: ChEBML_1690031. The protocol:
Inhibition of recombinant full length human IKKbeta expressed in baculovirus infected sf9 insect cells using biotinylated IkBalpha as substrate after 60 mins by DELFIA

Molecules are shown by their SMILES.

The molecule `N#Cc1c[nH]c2nc(N)nc(N[C@@H]3CC[C@@H](O)[C@H]3O)c12` yielded an inhibition constant Ki greater than 30 µM.
